From US12533338B2, “Enhanced gene delivery to natural killer cells, hematopoietic stem cells and macrophages” (priority 2015, dated 2026)
“Also recorded” adds a separate entry of the source. Where two headings read alike, the source gives them in different places.

Key:
NK cells [1] = assay: Annexin-V/PI staining for toxicity; type: cell-based; settings: for toxicity on NK cells (apoptotic and dead cells) compared to DMSO controls: 1.5 μM; for toxicity on NK cells (apoptotic and dead cells): 6 μM
From the text: FIG. 2B contains two bar graphs comparing apoptotic to dead Annexin −V^+/PI^−cells.
Remarkably, the use of iX at the optimum concentration presents no immediate toxic effects on NK cells as determined by Annexin-V/PI staining after […] treatment (FIG. 2b).

NK92 cells = assay: IFNγ secretion upon exposure to lentiviral particles; type: cell-based, human; settings: FIG. 4
From the text: FIG. 4 contains two bar graphs showing that iX treatment interferes with anti-viral cytokines IFNγ and TNF secretion.
(FIG. 4). […] (FIG. 4). […] (FIG. 4).

NK-92 cells [2] = assay: Gene expression profiling by RNAseq during lentiviral transduction; type: cell-based, human; settings: end of 6 hour transduction, FIGS. 6A-H
Experimental: Gene expression profiling by RNAseq for identification of pathways triggered by lentivirus entry in the absence and presence of small molecule inhibitors are assessed. NK-92 cells are transduced as previously described. At the end of the 6 hour transduction protocol, RNA from the cells is extracted and sequenced on a HiSeq 2500 instrument. After quality control, the reads are mapped to the human genome using the STAR aligner and gene abundance is estimated with HT-Seq. Differential expression is analyzed using DeSeq software. […] (FIG. 5).

IRF3 = IRF3 expression at protein level during lentiviral transduction; type: cell-based; settings: for change in IRF3 expression at the protein level: after the 6 hour transduction period; for change in IRF3 expression: at 24 hours, FIG. 3
From the text: (§1) FIG. 3 contains photos of a gel showing iX treatment during lentiviral transduction decreases RIG-I and IRF-3.

NK cells [3] = settings: cited from earlier work
RIG-I = RIG-I expression at protein level during lentiviral transduction; type: cell-based; settings: for change in RIG-I expression at the protein level: after the 6 hour transduction period; for change in RIG-I expression: at 24 hours, FIG. 3
From the text: as §1

NK cells [4] = assay: Dose dependence of lentiviral transduction with LeGO-G2 virus, GFP+ cells by flow cytometry; type: cell-based, human
Experimental: Primary human NK cells and NK-92 cells are transduced with LeGO-G2 virus in the presence of varying doses of BX795 or iX for 6 hours. GFP expression is analyzed by flow cytometry 72 hours after transduction. GFP+ cell percentages are shown on graph. Data from three independent experiments, each run in triplicates.
For each lentiviral transduction, 0.25×10^6 NK cells per well were seeded in a 24-well plate (BD Biosciences) and mixed with an appropriate amount of virus supernatant in the presence of 8 μg/ml of protamine sulfate (Sigma-Aldrich) or polybrene (Sigma-Aldrich) in a final volume of no more than 1 ml. The cytokines were replenished and plates were centrifuged at 1000×g for 1 hour at room temperature. After centrifugation, without removing viral supernatants, the plates were incubated at 37° C., 5% CO2 for 4-6 hours. At the end of the incubation, a second centrifugation at 1000×g for 1 hour at room temperature was carried out, after which the supernatants were removed from the wells and 1 ml of fresh NK cell growth medium (CellGro SCGM supplemented with 10% Human AB Serum) per well was added. The cells were maintained in this medium with daily addition cytokines (IL-2: 1000 U/ml, and IL-21: 20 ng/ml. Combinations of cytokines were used as indicated in FIG. 1. Only IL-2 and IL-21 were used in the rest of the experiments) for at least 3 days before acquisition of eGFP expression was carried out. In indicated experiments, the following inhibitors were present during the transduction: BX795 (Invivogen) and (5Z)-7-Oxozeaenol (iX) (Tocris).
For the transduction of cell lines, 2×10^5 cells per well were seeded into 24-well plates. Treatment with 6 μM BX795 and (5Z)-7-Oxozeaenol (iX) was initiated simultaneously with the transduction process. Appropriate amount of viral supernatants were added into the wells along with protamine sulfate (NK92, cells) and the total volume was adjusted to 500 μl. The plates were centrifuged at 1000×g for 1 hour followed by incubation at 37° C., 5% CO2 for 4-6 hours, after which the virus containing supernatant was removed and fresh growth media was added. The cells were grown for at least 3 days before acquisition of eGFP expression was carried out.
All antibody stainings for flow cytometry were done according to the following protocol: For surface stainings, the cells were washed once with PBS and incubated with appropriate amounts of antibody at 4° C. for 30 min. The labeled cells were then washed with PBS and fixed in 1% PFA prior to data acquisition. Data acquisition was done on a FACSCalibur (BD Biosciences), CyFlow ML (Partec GmbH, Munster, Germany) and LSRII-Fortessa (BD Biosciences) with standard filters. Data were analysed with the FlowJo software (TreeStar Inc.). […]

[5] = test system: Human primary macrophages; assay: CRISPR/Cas9 gene editing of Beta 2 Microglobulin, loss of B2M expression by flow cytometry; type: cell-based; settings: 1 μM iX, FIG. 7, n=4
From the text: (§2) The recent emergence of the clustered, regularly interspaced, palindromic repeats (CRISPR) system for gene editing has the potential to overcome these limitations. The CRISPR technology utilizes a fixed nuclease, often the CRISPR-associated protein 9 (Cas9) from Streptococcus pyogenes, in combination with a short guide RNA (gRNA) to target the nuclease to a specific DNA sequence. We confirmed that gRNA recognition and thus editing efficacy could be increased with introduction of iX inhibitor. […]
(§3) The following commercially available guide RNAs from Origene Technologies were tested against Beta 2 Microglobulin: […] […] 48 hours post-transfection, cells were stained with anti-B2M antibody (clone:2M2, Biolegend) to compare loss of (32 m expression. Cells were then analysed using flowcytometry as described below.
(§4) All antibody stainings for flow cytometry were done according to the following protocol: For surface stainings, the cells were washed once with PBS and incubated with appropriate amounts of antibody at 4° C. for 30 min. […] Data were analysed with the FlowJo software (TreeStar Inc.). […]

primary human NK cells = assay: Lentiviral transduction (LeGO-G2, GFP expression) of primary NK cells; type: cell-based; settings: 6 μM during lentiviral transduction, FIG. 1
Experimental: (§5) FIG. 1 contains two bar graphs showing the inhibition of innate immune signaling with iX enhances lentiviral transduction efficiency in NK cells. NK-92 cells and primary human NK cells isolated from healthy donor PBMCs were subjected to lentiviral transduction in the presence of 6 μM BX795 or iX for 6 hours. GFP expression is acquired 72 hours later. +cell percentages are shown on graph.
[…]. Next day cells were transfected with 30 μg of LeGO-G2 plasmid (courtesy of Prof. Boris Fehse, University Medical Center Hamburg-Eppendorf, Hamburg, Germany), 15 μg of pMDLg/pRRE (Addgene, Cambridge, Mass., USA), 10 μg of pRSV-REV (Addgene) and 5 μg of phCMV-VSV-G (Addgene) using calcium phosphate transfection kit (Sigma-Aldrich) in the presence of 25 μM Chloroquine (Sigma-Aldrich). […]
The peripheral blood mononuclear cells (PBMCs) were isolated by gradient centrifugation, using Lymphoprep (Nyegaard, Oslo, Norway) and washed twice with phosphate-buffered saline (PBS) (GIBCO, Grand Island, N.Y., USA). Cell count and viability were assessed by Turk and Trypan Blue dye exclusion. […]
as §4

CD34+ HSCs = assay: CRISPR/Cas9 gene editing of Beta 2 Microglobulin, loss of B2M expression by flow cytometry; type: cell-based, human; settings: 1 μM iX, hematopoietic stem cells, FIG. 7, n=4
From the text: as §2, §3, §4

NK92 cell line = assay: as above; type: cell-based, human; settings: 1 μM iX, NK cells (NK92), FIG. 7, n=4
From the text: as §2, §3, §4

NK-92 cells [6] = assay: Lentiviral transduction (GFP expression) of NK-92 cell line; type: cell-based, human; settings: 6 μM during lentiviral transduction, NK-92, FIG. 1
Experimental: as §5
[…]. Next day cells were transfected with 30 μg of LeGO-G2 plasmid (courtesy of Prof. Boris Fehse, University Medical Center Hamburg-Eppendorf, Hamburg, Germany), 15 μg of pMDLg/pRRE (Addgene, Cambridge, Mass., USA), 10 μg of pRSV-REV (Addgene) and 5 μg of phCMV-VSV-G (Addgene) using calcium phosphate transfection kit (Sigma-Aldrich) in the presence of 25 μM Chloroquine (Sigma-Aldrich). 10 hours after transfection, the medium was changed and thereafter virus containing supernatant was collected every 24 hours for 2-3 days and stored in −80° C. until further use. A small aliquot from each production was used to determine viral titers by transduction of 293FT cells with serially diluted amounts of virus supernatant. […]
as §4

Row | SMILES | toxicity on NK cells (apoptotic and dead cells) compared to DMSO controls (NK cells [1]) | toxicity on NK cells (apoptotic and dead cells) (NK cells [1]) | effect on anti-viral response pathways at mRNA level (NK-92 cells [2]) | change in IRF3 expression at the protein level (IRF3) | change in IRF3 expression (IRF3) | change in RIG-I expression at the protein level (RIG-I) | change in RIG-I expression (RIG-I) | optimum dose for lentiviral gene delivery (NK cells [4]; NK cells) [µM] | also measured
1 | O=C(NCCCNc1nc(Nc2cccc(NC(=O)N3CCCC3)c2)ncc1I)c1cccs1 [BX795] | no toxicity | quite small but statistically significant increase | failed to fully suppress similar anti-viral responses | not detectable | significant decrease | not detectable | significant decrease | 6 | secretion of IFNγ (NK92 cells; 24 hours after exposure to lentiviral particles): significantly trigger similar effect; transduction efficiency in NK cells (NK cells [3]; previously reported (Sutlu et al., 2012)): dramatically increases; effect of concentration on genetic modification efficiency (NK cells [3]; shown previously): dose-dependent effect
2 | COc1cc(O)c2c(c1)/C=C/C[C@H](O)[C@H](O)C(=O)/C=C\C[C@H](C)OC2=O [iX, (5Z)-7-Oxozeaenol] | no significant toxicity | no signs of immediate toxicity | affected pathways associated with anti-viral responses | not detectable | significant decrease | not detectable | significant decrease | 1.5 | β2M gene editing efficacy [5]: increased (32M editing significantly; improvement in lentiviral gene delivery (primary human NK cells): statistically significant improvement; secretion of IFNγ (NK92 cells; six hours, during lentiviral gene delivery): significantly decreased; extent of downregulation in IRF3 compared to BX795 (IRF3): significantly more; β2M gene editing efficacy (CD34+ HSCs): increased (32M editing significantly; β2M gene editing efficacy (NK92 cell line): increased (32M editing significantly; extent of downregulation in RIG-I compared to BX795 (RIG-I): significantly more; improvement in lentiviral gene delivery (NK-92 cells [6]): statistically significant improvement; enhancement of lentiviral gene delivery compared to BX795 (NK cells [4]; NK cells): to a further extent; also recorded: significantly higher extent; effect of concentration on genetic modification efficiency (NK cells [4]; varying doses, FIG. 2A): dose-dependent effect
